Measurements reported in PMC11988454, “Discovery of synthetic small molecules targeting the central regulator of Salmonella pathogenicity” (Science Advances, 2025).

B1: HilD (natural protein)
chain: MENVTFVSNSHQRPAADNLQKLKSLLTNTRQQIKSQTQQVTIKNLYVSSFTLVCFRSGKLTISNNHDTIYCDEPGMLVLKKEQVVNVTLEEVNGHMDFDILEIPTQRLGALYALIPNEQQTKMAVPTEKAQKIFYTPDFPARREVFEHLKTAFSCTKDTSKGCSNCNNKSCIENEELIPYFLLFLLTAFLRLPESYEIILSSAQITLKERVYNIISSSPSRQWKLTDVADHIFMSTSTLKRKLAEEGTSFSDIYLSARMNQAAKLLRIGNHNVNAVALKCGYDSTSYFIQCFKKYFKTTPSTFIKMANH
notes: also called HilDWT; recombinant HilD; source: E. coli C41(DE3), purified (Ni-NTA, SUMO protease cleavage, second Ni-NTA, SEC)

Tests used:
HilD [1] = biological target: T1, HilD (Salmonella typhimurium, UniProt E1WAC0); assay: Whole-cell HilD activity assay (PhilA-sfGFP activation); assay type: cell-based, S. Typhimurium; conditions: for activity in PhilA activation assay, in words: CDCA: highest tested concentration 100 μM
T1 construct: endogenous in cells; host or cells: S. Typhimurium SL1344 strain PhilA-sfGFP
Method: A whole-cell reporter gene assay was used to quantify HilD transcriptional activity. Strain PhilA-sfGFP and the isogenic ΔhilD PhilA-sfGFP were used for this purpose. Cultures were performed in 1 ml of LB supplemented with 0.3 M NaCl. Compounds at different concentrations or 1% (v/v) DMSO were added to the corresponding tubes. Cultures were incubated at 37°C and 180 rpm for 5 hours. Cells were pelleted, resuspended in 100 μl of PBS, and then transferred into a 96-well black clear-bottom plate (Thermo Fisher Scientific, USA). Fluorescence intensity was measured with a Tecan Spark microplate reader with an excitation wavelength of 485 nm and an emission wavelength of 510 nm. Dose-response curves and IC50 values were calculated using CDD Vault.

HilD [2] = biological target: T2, HilD (Salmonella typhimurium, UniProt P0CL08); assay: nanoDSF thermal stability, HilD; assay type: binding, S. Typhimurium
T2 construct: His6-SUMO (N, cleaved yes); made in house; host or cells: E. coli C41(DE3)
Method: Thermal stability of proteins was determined using nanoDSF, with runs performed on a Prometheus NT.48 (NanoTemper Technologies). A twofold serial dilution series of C26 was prepared in DMSO. C26 was added to HilD or HilC (5 μM) in SEC buffer, giving a final DMSO concentration of 1% (v/v). Samples were incubated for >20 min at r.t. and centrifuged for 2 min prior to loading of standard capillaries (no. PR-C002). Samples were heated from 20° to 80°C with a temperature gradient of 0.5°C min^−1. Melting temperatures were calculated from changes in the fluorescence ratio (350/330 nm), using PR.Stability Analysis v1.0.3 and a temperature range of 40° to 70°C for curve fitting. Data analysis was performed using Prism 8.4 (GraphPad). The change in HilD melting temperature, Tm, was fitted as a function of ligand concentration, using Eqs. 1 and 2 to yield apparent affinity (Kd,app) values Tm{[L]0}=Tm,lower+(Tm,upper−Tm,lower)*(1−α{[L]0}) (1) α{[L]0}=[P]t−Kd−[L]t+{[P]t+[L]t+Kd,app}^2−{4[P]t[L]t}/2[P]t (2) where [P]t and [L]t are the total protein and ligand concentrations, respectively.

HeLa cells = assay: Cytotoxicity, CellTox Green Cytotoxicity Assay, HeLa; assay type: cell-based; conditions: exposure time 18 h
Method: In vitro toxicity of compound C26 was assessed in HeLa cells (ATCC CCL-2) using the ApoTox-Glo Triplex Assay and in macrophages RAW 264.7-LgBiT using the CellTox Green Cytotoxicity Assay (Promega, USA) according to the manufacturer’s instructions. The screening of in vitro toxicity of the compound analogs was performed with the CellTox Green Cytotoxicity Assay (Promega, USA) according to the manufacturer’s instructions. Cells (10^4 cells per well) were seeded into a 96-well plate and incubated for 24 hours at 37°C, 5% (v/v) CO2. Cells were then treated with the compound at different concentrations or 1% (v/v) DMSO in Dulbecco’s modified Eagle’s medium (DMEM) without phenol red at the desired exposure time. Fluorescence intensity was measured with a TECAN Spark microplate reader. Cytotoxicity [relative fluorescence units (RFU)] and viability (RFU) values were plotted to calculate the TC50 using GraphPad Prism 10.1.1.
Compound concentration (µM) […]
in vitro cytotoxicity of C26 and analogs. Cytotoxicity assessed with CellTox™ Green Cytotoxicity Assay with an exposure time of 18 h. N = 3 biological replicates. Data were plotted and TC50 values were generated with GraphPad Prism 10.1.1.
(1 picture or pasted object on this page, not shown here)

HilD dimer = biological target: T3, HilD dimer (Salmonella typhimurium, UniProt P0CL08); assay: BS3 cross-linking of HilD; assay type: biochemical, S. Typhimurium; conditions: oleic acid 50 and 100 μM; C26 up to 200 μM
T3 construct: His6-SUMO (N, cleaved yes); made in house; host or cells: E. coli C41(DE3)
Method: BS^3 cross-linking of HilD was performed as previously described ([39]). In summary, HilD (10 μM) was first incubated with C26 or oleic acid in SEC buffer for 20 min at r.t., with a final DMSO concentration of 1% (v/v). HilD was then cross-linked by incubation with 0.2 mM BS^3 (Thermo Fisher Scientific, Pierce, A39266) at r.t. for 1 hour, before the reaction was quenched by the addition of 50 mM Tris (pH 7.5). Samples were analyzed using SDS-PAGE and visualized by silver staining.

HilD-HilE heterodimer = HilD-HilE heterodimer (Salmonella typhimurium, UniProt P0CL08); assay: MST dimerization assay HilD-HilE; assay type: binding, S. Typhimurium; conditions: 100 μM compound
Method: MST measurements for the binding of HilD to HilE were performed as previously described ([39]). In summary, enhanced yellow fluorescent protein (EYFP)-HilD (100 nM) was incubated with 100 μM either oleic acid or C26 [with a final concentration of 1% (v/v) DMSO] for 10 min at r.t. (22° to 25°C) and subsequently mixed 1:1 with varying concentrations of HilE. Samples were incubated together for 10 min at r.t., centrifuged for 5 min, and loaded to standard capillaries (NanoTemper Technologies GmbH, no. MO-K022). MST runs were performed at 25°C on a NanoTemper Monolith NT.115, with an excitation power of 60% and medium MST power. Data were analyzed using the MO.Affinity Analysis v2.3 software, and affinity constants were calculated using the Kd model.

SEC-MALS = biological target: the molecule itself; assay: SEC-MALS
HilE [3] = biological target: T4, HilE (Salmonella enterica subsp. enterica …); assay: MST; 1% DMSO
T4 chain: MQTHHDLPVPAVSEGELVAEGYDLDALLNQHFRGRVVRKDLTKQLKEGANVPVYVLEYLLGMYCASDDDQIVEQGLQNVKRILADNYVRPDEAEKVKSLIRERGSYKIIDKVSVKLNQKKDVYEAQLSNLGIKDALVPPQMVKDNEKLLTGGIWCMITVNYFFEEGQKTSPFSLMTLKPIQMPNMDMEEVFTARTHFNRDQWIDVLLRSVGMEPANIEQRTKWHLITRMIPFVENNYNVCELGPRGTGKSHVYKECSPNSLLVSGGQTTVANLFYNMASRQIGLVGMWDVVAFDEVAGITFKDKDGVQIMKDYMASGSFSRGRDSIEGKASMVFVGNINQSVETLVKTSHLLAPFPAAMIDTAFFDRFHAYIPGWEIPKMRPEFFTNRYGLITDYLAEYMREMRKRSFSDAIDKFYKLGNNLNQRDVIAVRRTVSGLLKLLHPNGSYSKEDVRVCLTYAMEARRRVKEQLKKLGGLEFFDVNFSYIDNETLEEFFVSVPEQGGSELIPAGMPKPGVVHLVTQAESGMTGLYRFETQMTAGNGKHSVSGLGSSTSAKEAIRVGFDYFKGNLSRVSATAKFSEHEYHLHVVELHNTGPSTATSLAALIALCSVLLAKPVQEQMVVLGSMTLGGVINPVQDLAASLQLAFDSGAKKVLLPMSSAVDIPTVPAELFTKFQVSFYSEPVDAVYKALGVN

HilE [4] = biological target: T4, HilE; assay: MST; 100 uM C26

| Molecule | IC50 (HilD [1]) | Kd (HilD [2]) | TC50 cytotoxicity (HeLa cells) | also measured |
| --- | --- | --- | --- | --- |
| CCCCCC/C=C\CCCCCCCC(=O)O [palmitoleic acid, reference compound] | 25.8 µM |  |  |  |
| Cc1ccc(CN(C)CC(=O)NCc2ccc3c(c2)OCO3)s1 [SW-C153] | 63.1 µM | 8.8 µM | > 100 µM |  |
| CN(CC(=O)NCc1ccc(O)c(O)c1)Cc1ccc(Br)s1 [SW-C170, 2-{[(5-Bromothiophen-2-yl)methyl](methyl)amino}-N-(3,4-dihydroxybenzyl)acetamide] | > 100 µM | > 100 µM | > 100 µM | activity in PhilA activation assay, in words (HilD [1]): complete loss of activity |
| CN(CC(=O)NCc1ccc2c(c1)OCO2)Cc1ccc(Br)o1 [SW-C210, N-(benzo[d][1,3]dioxol-5-ylmethyl)-2-{[(5-bromofuran-2-yl)methyl](methyl)amino}acetamide] | > 100 µM | > 100 µM | > 100 µM |  |
| CCCCCCCCCCCCC/C=C\C(=O)O [c2-HDA, cis-2-hexadecenoic acid, reference compound] | 0.21 µM |  |  |  |
| CN(CC(=O)NCc1ccc2c(c1)OC(F)(F)O2)Cc1ccc(Br)s1 [SW-C182, 2-{[(5-Bromothiophen-2-yl)methyl](methyl)amino}-N-[(2,2-difluorobenzo[d][1,3]dioxol-5-yl)methyl]acetamide] | 4.9 µM | 2.7 µM | 49.9 µM |  |
| CN(CC(=O)NCc1ccc2c(c1)OCO2)Cc1ccccc1Br [SW-C165, N-(benzo[d][1,3]dioxol-5-ylmethyl)-2-[(2-bromobenzyl)(methyl)amino]acetamide] | > 100 µM | > 100 µM | > 100 µM |  |
| CN(CC(=O)NCc1cc(Cl)cc(Cl)c1)Cc1ccc(Br)s1 [SW-C250, 2-{[(5-Bromothiophen-2-yl)methyl](methyl)amino}-N-(3,5-dichlorobenzyl)acetamide] | 3.2 µM | 1.8 µM | > 100 µM |  |
| C[C@H](CCC(=O)O)[C@H]1CC[C@H]2[C@@H]3[C@H](O)C[C@@H]4C[C@H](O)CC[C@]4(C)[C@H]3CC[C@]12C [CDCA, chenodeoxycholic acid, reference compound] |  |  |  | activity in PhilA activation assay, in words (HilD [1]): No activity |
| CN(CC(=O)NCc1ccc2c(c1)OCO2)Cc1ccc(Br)cc1 [SW-C116] | 68.3 µM | > 100 µM | > 100 µM |  |
| CN(CC(=O)NCc1ccc(Cl)cc1)Cc1ccc(Br)s1 [SW-C202, 2-{[(5-Bromothiophen-2-yl)methyl](methyl)amino}-N-(4-chlorobenzyl)acetamide] | 3.9 µM | 4.1 µM | 87.3 µM |  |
| CCCCCCCC/C=C\CCCCCCCC(=O)O [oleic acid, reference compound] | 25.1 µM |  |  | levels of cross-linked HilD dimer (HilD dimer): Decreased levels of the cross-linked HilD dimer; formation of HilD-HilE heterodimers (HilD-HilE heterodimer): disrupted the binding of HilE to HilD |
| CN(CC(=O)NCc1ccccc1)Cc1ccc(Br)s1 [SW-C103] | 34.4 µM | 28.8 µM | > 100 µM |  |
| B1 |  |  |  | stoichiometry N (SEC-MALS): 2; Kd (HilE [3]): 1.7 µM; Kd (HilE [4]): 1.71 µM |
